Earlier results on two compounds are cited in patent US3955959A, “Herbicide for use in transplanted rice” (priority 1974, dated 1976).

Molecules are shown by their SMILES.

Data set [1] has as its system rice. The conditions noted are these: prior art; cited from earlier work.
In data set [2] the test system is weeds in rice fields. The conditions noted are these: prior art; cited from earlier work.

Turning to `CC(C)Oc1cc(-n2nc(C(C)(C)C)oc2=O)c(Cl)cc1Cl` [2-tert-butyl-4-(2,4-dichloro-5-isopropyloxyphenyl)-5-oxo-1,3,4-oxadiazoline], in data set [1], the crop safety entry is “marginal crop safety”.

As for `CCSC(=O)N1CCCCCC1` [S-ethyl hexahydro-1H-azepine-1-carbothioate], the “spectrum of weed control” value in data set [2] was “narrow spectrum of weed control”.
